Data reported in patent US5389621A, “Method of enhancing the anticoagulant effects of aspirin using salicylamide” (University of Medicine and Dentistry of New Jersey, priority 1994, dated 1995).

Tests used:
platelet cyclooxygenase = assay: Thromboxane B2 synthesis by arachidonic acid-stimulated platelet-rich plasma in vitro; format: cell-based, male Sprague-Dawley rats; conditions: ASA/SA 1:1 w/w, TX B2
From the text: Was done manually by the method of Brecher and Conkite (1953) using phase contrast microscopy (Balplan) with a 40×annulus, 40×phase objective, and 10×ocular (total of 400×), and a special platelet counting chamber (American Optical Corp., Buffalo, N.Y.) and dilution with 1% ammonium oxalate. The platelet-rich plasma (PRP) was adjusted by dilution with platelet-poor plasma (PPP) to give a final count of 1×10^9 platelets/ml.
Arachidonic acid (as the sodium salt, >99.0% pure) was obtained from Sigma Chemical Co. and a stock solution of 34.5 mM was prepared by dissolving in isotonic saline. 20 μl of the stock solution were added to 440 μl of PRP (400 μl of PRP and 20 or 40 μl of treatment solution ±20 μl of saline) to make a 23 fold dilution. The final concentration of AA in PRP was 1.5 mM.
EDTA solution was prepared by adding 2 gm disodium EDTA and 0.8 gm NaCl and were adjusted to pH 7.4 with NaOH and made up to a final volume of 100 ml in distilled water. ASA solution was prepared by dissolving 30 mg in 10 ml of isotonic saline to make a solution of 3 mg/ml.
950 μl of EDTA solution were added to 50 μl of ASA solution and the mixture was vortexed. 40 μl of the mixture were pipetted in the experiment test tubes to stop further prostaglandin production.
Platelet-rich plasma (PRP) was prepared from male Sprague-Dawley rats (300-325 gm). The blood was collected by heart puncture and added to 3.8% citrate solution, final volume 9:1, blood:citrate. The blood was centrifuged at 120×g (750 rpm) for 15 minutes at 4° C. to obtain PRP. The rest of the blood was spun at 1800×g (3000 rpm) for 10 minutes to get the PPP which was used later for dilution of the PRP to achieve the final desired platelet concentration of 1×10^9 platelets/ml. 400 μl of PRP, containing 4×10^8 platelets, were pipetted in polypropylene tubes and the following treatment groups were studied:
1--Baseline (-ve control) tubes: to measure the baseline production of Thromboxane B2 (TX B2) by platelets during the time of the experiment, 60 μl of saline were added and left for 10 minutes in a shaking water bath at 37° C.
2--Control (+ve control) tubes: 20 μl of arachidonic acid (AA) solution were added to achieve a final concentration of 1.5 mM and the tubes were incubated […].
3--ASA and/or SAM treatment tubes: 20 μl of ASA (final conc. 130 μg/ml), 20 μl of SAM solution (final conc. 40 μg/ml), 20 μl of ASA/SAM(L) solution (final conc. 130/40 μg/ml) or 20 μl of ASA/SAM(H) solution (final conc. 130/120 μg/ml) were added to PRP together with 20 μl of saline for 10 minutes, then 20 μl of AA solution were added for additional 10 minutes.
4--ASA/SA treatment: 20 μl of ASA/SA solution (final conc. 130/130 μg/ml) and 20 μl of saline were added to the tubes for 10 minutes before AA was added for further 10 minutes.
5--ASA/SA/SAM treatment: 20 μl of ASA/SA solution (130/130 μg/ml as final conc.) and 20 μl of […] in low (L) or high (H) concentrations (40 or 120 μg/ml, final conc.) were added simultaneously to PRP followed 10 minutes later by AA.
6--SAM/SA treatment: 20 μl of SAM solution (final conc. 40 μg/ml) and 20 μl of SA solution (final conc. 130 μg/ml) were added followed 10 minutes later by AA for additional 10 minutes.
Also, the effect of SAM when administered first to the platelets followed 10 minutes later by ASA was studied to know whether the effect of SAM is time dependent or not.
During the treatment, all the tubes were incubated at 37° C. in a shaking water bath. Ten minutes after the addition of AA, or saline (for the control tubes), the experiment was ended by addition of 40 μl of EDTA/ASA solution. The tubes were immediately centrifuged at 1800×g for 15 minutes at 4° C. to precipitate the platelets and 100 μl of the supernatant were obtained for estimation of their content of TX B2 using a specific radioimmunoassay (Amersham International) (vide infra).
Radioimmunoassay Procedure for Measurement of Thromboxane B2 and 6-keto PG F1alpha […]

[1] = cited from earlier work
cyclooxygenase = conditions: in vitro; cited from earlier work
[2] = system: lyso-PAF:acetyl-CoA acetyltransferase; conditions: cited from earlier work

O=C(O)c1ccccc1O [SA, salicylic acid]
Antagonism of ASA effect by SA (platelet cyclooxygenase): ~ 70%
Pharmacokinetics linearity ([1]; humans and rats): non-linear and dose-dependent
Distribution and plasma albumin binding ([1]; rat, in vivo): concentration-dependent distribution and plasma albumin binding
Effect on cyclooxygenase (cyclooxygenase): does not have the capacity to inhibit cyclooxygenase
Effect on lyso-PAF:acetyl-CoA acetyltransferase [2]: inhibitory effect
